8 molecules from patent publication US8536097B2, “4-(4-haloalkyl-3-thiobenzoyl)pyrazoles and use thereof as herbicides” (Bayer Cropscience AG, priority 2010, dated 2013) can be followed below.

Structures are written as SMILES.

What all share (type): in vivo
In one assay the test system is Matricaria inodora. Nature of the assay: Post-emergence herbicidal action against weed plants. As to conditions: dose 80 g a.c./ha, scored after 3 to 4 weeks. How it is done:
(§1) [table] 2. Post-Emergence Herbicidal Action Against Weed Plants Seeds of monocotyledonous and dicotyledonous weed plants are set out in cardboard pots in sandy loam soil, covered with soil, and cultivated under glass under good growth conditions. Two to three weeks after sowing, the trial plants are treated at the three-leaf stage. The compounds according to the invention, formulated as wettable powders or as emulsifiable concentrates, are sprayed onto the surface of the green parts of the plants, at a water application rate of 600 to 800 I/ha (converted). After the trial plants have stood for 3 to 4 weeks under optimum growth conditions under glass, the action of the compounds according to the invention is scored in comparison to compounds disclosed in the prior art.

A further assay deals with Cyperus serotinus. Nature of the assay: Pre-emergence herbicidal action against weed plants. The settings on record: scored after 3 to 4 weeks. The source says: (§2) Seeds or rhizome sections of mono- and dicotyledonous weed plants are set out in pots of 9 to 13 cm in diameter, in sandy loam soil, and are covered with soil. The herbicides, formulated as emulsifiable concentrates or dusts, are applied to the surface of the covering earth in the form of aqueous dispersions or suspensions or emulsions, at a water application rate of 300 to 800 I/ha (converted) in different doses. The pots are then maintained under glass under optimum conditions for the further cultivation of the plants. After 3 to 4 weeks under optimum growth conditions under glass, the trial plants are scored for the effect of the compounds according to the invention in comparison to compounds disclosed in the prior art. […] [table]

Assay [1] relates to Viola tricolor. The description is as above. As to conditions: scored after 3 to 4 weeks.
Description: as §2

For another assay, the system named is Avena fatua. The assay is described as above. As to conditions: dose 80 g a.c./ha, scored after 3 to 4 weeks.
Description: as §2

Another assay concerns Amaranthus retroflexus. The assay is described as follows: Post-emergence herbicidal action against weed plants. As to conditions: dose 320 g a.c./ha, scored after 3 to 4 weeks. How it is done: as §1
The subject of assay [2] is Viola tricolor. Described as above. The settings on record: dose 320 g a.c./ha, scored after 3 to 4 weeks. How it is done: as §1
In another assay the test system is Setaria viridis. Described as above. As to conditions: dose 80 g a.c./ha, scored after 3 to 4 weeks. How it is done: as §1
The test system of a further assay is Alopecurus myosuroides. Nature of the assay: Pre-emergence herbicidal action against weed plants. The settings on record: dose 320 g a.c./ha, scored after 3 to 4 weeks.
Description: as §2

In the case of `Cc1c(C(=O)c2cnn(C)c2O)ccc(C(F)(F)F)c1S(C)(=O)=O` [1-4, known from WO 2008/125214], the “Herbicidal action against MATIN” value in the assay on Matricaria inodora stood at 50%.
As for `Cc1c(C(=O)c2cnn(C)c2O)ccc(C(F)(F)F)c1[S+](C)[O-]` (centres unmarked) [1-9, known from WO 2008/125214], in the assay on Cyperus serotinus (dose 80 g a.c./ha), the “Herbicidal action against CYPES” value is 50%. The “Herbicidal action against VIOTR” value in the assay on Viola tricolor [1] (dose 80 g a.c./ha) is recorded as 60%. In addition, the “Herbicidal action against AVEFA” value in the assay on Avena fatua is listed as 40%.
For the molecule `Cc1c(C(=O)c2cnn(C)c2O)ccc(C(F)(F)C(F)(F)F)c1[S+](C)[O-]` (centres unmarked) [1-153], the “Herbicidal action against CYPES” value in the assay with Cyperus serotinus (dose 80 g a.c./ha) is listed as 100%. Also, the “Herbicidal action against VIOTR” value in the assay on Viola tricolor [1] (dose 80 g a.c./ha) was 90%. The “Herbicidal action against AVEFA” value with Avena fatua turned out to be 70%.
Turning to `Cc1c(C(=O)c2cnn(C)c2O)ccc(C(F)(F)C(F)(F)F)c1S(C)(=O)=O` [1-161], the “Herbicidal action against MATIN” value in the assay on Matricaria inodora worked out at 100%.
Consider `Cc1nn(C)c(O)c1C(=O)c1ccc(C(F)(F)F)c([S+](C)[O-])c1C` (centres unmarked) [3-9, known from WO 2008/125214], for which the “Herbicidal action against AMARE” value in the assay on Amaranthus retroflexus was 50%. The “Herbicidal action against VIOTR” value in the assay on Viola tricolor [2] and in the assay on Viola tricolor [1] (dose 320 g a.c./ha) was 40% each time.
`Cc1nn(C)c(O)c1C(=O)c1ccc(C(F)(F)F)c(S(C)(=O)=O)c1C` [3-17, known from WO 2008/125214]: the “Herbicidal action against SETVI” value with Setaria viridis is given as 60%. For the same molecule, the “Herbicidal action against CYPES” value with Cyperus serotinus (dose 320 g a.c./ha) was 50%. Further, the “Herbicidal action against ALOMY” value in the assay with Alopecurus myosuroides came out at 50%.
For `Cc1nn(C)c(O)c1C(=O)c1ccc(C(F)(F)C(F)(F)F)c([S+](C)[O-])c1C` (centres unmarked) [3-153], in the assay with Amaranthus retroflexus, the “Herbicidal action against AMARE” value worked out at 80%. The “Herbicidal action against VIOTR” value in the assay on Viola tricolor [2] was found to be 80%; with Viola tricolor [1] (dose 320 g a.c./ha) it was 90%.
For `Cc1nn(C)c(O)c1C(=O)c1ccc(C(F)(F)C(F)(F)F)c(S(C)(=O)=O)c1C` [3-161], the “Herbicidal action against SETVI” value in the assay on Setaria viridis worked out at 100%. Also, the “Herbicidal action against CYPES” value in the assay with Cyperus serotinus (dose 320 g a.c./ha) is listed as 80%. The “Herbicidal action against ALOMY” value in the assay on Alopecurus myosuroides is 90%.
